Literature values as cited in article PMC3962266 (Journal of medicinal chemistry, 2013).

Assays:
[1] = not given; remark: listed apart in the source
[2] = not given; remark: listed apart in the source

CCCCNc1ncc2c(-c3ccc(S(=O)(=O)N4CCOCC4)cc3)nn(C3CCC(O)CC3)c2n1 (stereo not shown) [UNC1062]
Solubility: low solubility
Pharmacokinetic (PK) properties [1]: poor pharmacokinetic (PK) properties

CC(=O)Oc1ccccc1C(=O)O [aspirin]
Baseline major bleeding risk (gastrointestinal or intracranial) [2]: 1–4%

COC(=O)[C@H](c1ccccc1Cl)N1CCc2sccc2C1 [clopidogrel]
Further increase of bleeding risk on addition as combination therapy ([2]; added to aspirin): 1%
